Data as given in patent US12077483B2, “Modified amine lipids” (Intellia Therapeutics, Inc., priority 2018, dated 2024).
Each block holds one compound with its values, some of them ahead of it.

Legend:
[1] = LNP average particle size and polydispersity by dynamic light scattering; type: physicochemical; conditions: LNP with the compound as amine lipid
Excerpt: The LNPs have a size of about 1 to about 1,000 nm, about 10 to about 500 nm, about 20 to about 500 nm, in a sub-embodiment about 50 to about 400 nm, in a sub-embodiment about 50 to about 300 nm, in a sub-embodiment about 50 to about 200 nm, and in a sub-embodiment about 50 to about 150 nm, and in another sub-embodiment about 60 to about 120 nm. Preferably, the LNPs have a size from about 60 nm to about 100 nm. The average sizes (diameters) of the fully formed LNP, may be measured by dynamic light scattering on a Malvern Zetasizer. The LNP sample is diluted in phosphate buffered saline (PBS) so that the count rate is approximately 200-400 kcps. The data is presented as a weighted average of the intensity measure.
In some embodiments, the LNPs have a size of about 75 to about 120 nm. In some embodiments, the LNPs have a size of about 75 to about 100 nm. Unless indicated otherwise, all sizes referred to herein are the average sizes (diameters) of the fully formed nanoparticles, as measured by dynamic light scattering on a Malvern Zetasizer. The nanoparticle sample is diluted in phosphate buffered saline (PBS) so that the count rate is approximately 200-400 kcps. The data is presented as a weighted-average of the intensity measure (Z-average diameter).
Dynamic Light Scattering (“DLS”) is used to characterize the polydispersity index (“pdi”) and size of the LNPs of the present disclosure. DLS measures the scattering of light that results from subjecting a sample to a light source. PDI, as determined from DLS measurements, represents the distribution of particle size (around the mean particle size) in a population, with a perfectly uniform population having a PDI of zero. Electropheretic light scattering is used to characterize the surface charge of the LNP at a specified pH. The surface charge, or the zeta potential, is a measure of the magnitude of electrostatic repulsion/attraction between particles in the LNP suspension. Asymmetric-Flow Field Flow Fractionation—Multi-Angle Light Scattering (AF4-MALS) is used to separate particles in the composition by hydrodynamic radius and then measure the molecular weights, hydrodynamic radii and root mean square radii of the fractionated particles. […] Nanoparticle tracking analysis (NTA, Malvern Nanosight) can be used to determine particle size distribution as well as particle concentration. LNP samples are diluted appropriately and injected onto a microscope slide. A camera records the scattered light as the particles are slowly infused through field of view. After the movie is captured, the Nanoparticle Tracking Analysis processes the movie by tracking pixels and calculating a diffusion coefficient. This diffusion coefficient can be translated into the hydrodynamic radius of the particle. The instrument also counts the number of individual particles counted in the analysis to give particle concentration.
LNP compositions are analyzed for average particle size, polydispersity index (pdi), total RNA content, encapsulation efficiency of RNA, and zeta potential. LNP compositions may be further characterized by lipid analysis, AF4-MALS, NTA, and/or cryo-EM. Average particle size and polydispersity are measured by dynamic light scattering (DLS) using a Malvern Zetasizer DLS instrument. LNP samples were diluted with PBS buffer prior to being measured by DLS. Z-average diameter which is an intensity-based measurement of average particle size was reported along with number average diameter and pdi. A Malvern Zetasizer instrument is also used to measure the zeta potential of the LNP. Samples are diluted 1:17 (50 μL into 800 μL) in 0.1×PBS, pH 7.4 prior to measurement.

mouse TTR = assay: Serum TTR ELISA in mice after LNP delivery; type: in vivo; conditions: mouse serum, relative to TSS control of same experiment
Summary of the method: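 Female CD-1 mice received LNP at 0.1 mpk unless noted; serum was collected 6 or 7 days later. Total serum TTR was measured by mouse prealbumin ELISA at 10,000- and/or 2,500-fold dilution and is expressed as a percentage of vehicle control.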

[2] = RNA encapsulation efficiency of LNP (Ribogreen fluorescence assay); type: physicochemical; conditions: LNP with the compound as amine lipid
Procedure: A fluorescence-based assay (Ribogreen®, ThermoFisher Scientific) is used to determine total RNA concentration and free RNA. Encapsulation efficiency is calculated as (Total RNA—Free RNA)/Total RNA. LNP samples are diluted appropriately with 1× TE buffer containing 0.2% Triton-X 100 to determine total RNA or 1× TE buffer to determine free RNA. Standard curves are prepared by utilizing the starting RNA solution used to make the compositions and diluted in 1× TE buffer+/−0.2% Triton-X 100. Diluted RiboGreen® dye (according to the manufacturer's instructions) is then added to each of the standards and samples and allowed to incubate for approximately 10 minutes at room temperature, in the absence of light. A SpectraMax M5 Microplate Reader (Molecular Devices) is used to read the samples with excitation, auto cutoff and emission wavelengths set to 488 nm, 515 nm, and 525 nm respectively. Total RNA and free RNA are determined from the appropriate standard curves.
Encapsulation efficiency is calculated as (Total RNA−Free RNA)/Total RNA. The same procedure may be used for determining the encapsulation efficiency of a DNA-based cargo component. For single-strand DNA, Oligreen Dye may be used and for double-strand DNA, Picogreen Dye.

[3] = pKa of amine lipid by TNS fluorescence; type: physicochemical; conditions: probe TNS (6-(p-toluidino)-2-naphthalenesulfonic acid sodium salt), unformulated amine lipid in ethanol, sodium phosphate buffers -9.0
Summary of the method: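 Unformulated amine lipid, about 100 μM final, in 0.1 M sodium phosphate buffers spanning pH 4.5–9.0 with TNS. Fluorescence read at ex 321/em 448 nm; normalized data fitted sigmoidally to give pKa.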

[4] = Expt. 9, composition ratio (mol %) 50/9/38/3 for Cmpnd 49, 50/10/38.5/1.5 for the others
[5] = Expt. 10, composition ratio (mol %) 50/9/38/3 for Cmpnd 49, 50/10/38.5/1.5 for the others
[6] = Expt. 2, composition ratio (mol %) 50/9/39.5/3 for Cmpnd 49, 50/9/39.5/1.5 for the others
[7] = Expt. 6, composition ratio (mol %) 50/9/38/3 for Cmpnd 49, 50/10/38.5/1.5 for the others
[8] = Expt. 5, composition ratio (mol %) 50/10/38.5/1.5
[9] = Expt. 8, composition ratio (mol %) 50/9/38/3 for Cmpnd 49, 50/10/38.5/1.5 for the others
[10] = Expt. 7, composition ratio (mol %) 50/9/38/3 for Cmpnd 49, 50/10/38.5/1.5 for the others

Compound: CCCCC/C=C\C/C=C\CCCCCCCC(=O)OCC(COC(=O)CCCCCCC/C=C\C/C=C\CCCCC)OC(=O)CCC(CCCCCCCC)OC(=O)OCCCCN(CC)CC (centres unmarked) [Compound 95, 2-((4-(((4-(diethylamino)butoxy)carbonyl)oxy)dodecanoyl)oxy)propane-1,3-diyl (9Z,9′Z,12Z,12′Z)-bis(octadeca-9,12-dienoate)]
Num Ave Size (nm) [1, 5]: 88 nm | PDI [1, 5]: 0.01 | Z-Ave Size (nm) [1, 5]: 105 nm | Serum TTR % TSS (mouse TTR; dose 0.03 mpk): 77% TSS | Encapsulation (%) [2, 5]: 98% | pKa [3]: 6.15

Compound: CCCCC/C=C\C/C=C\CCCCCCCC(=O)OCC(COC(=O)CCCCCCC/C=C\C/C=C\CCCCC)OC(=O)C1(C(CCCCCCCC)OC(=O)NCCN(C)CC)CC1 (centres unmarked) [Compound 86, 2-((1-(1-(((2-(ethyl(methyl)amino)ethyl)carbamoyl)oxy)nonyl)cyclopropane-1-carbonyl)oxy)propane-1,3-diyl (9Z,9′Z,12Z,12′Z)-bis(octadeca-9,12-dienoate)]
Num Ave Size (nm) [1, 7]: 68 nm | PDI [1, 7]: 0.04 | Z-Ave Size (nm) [1, 7]: 87.00 nm | Serum TTR % TSS (mouse TTR; dose 0.03 mpk): 93.10 % TSS | Serum TTR % TSS (mouse TTR; dose 0.1 mpk): 28.80 % TSS | Encapsulation (%) [2, 7]: 98% | pKa [3]: 6.23

Compound: CCCCC/C=C\C/C=C\CCCCCCCC(=O)OCC(COC(=O)CCCCCCC/C=C\C/C=C\CCCCC)OC(=O)CCC(CCCCC)OC(=O)NCC1CCCN1C (centres unmarked) [Compound 70, 2-((4-((((1-methylpyrrolidin-2-yl)methyl)carbamoyl)oxy)nonanoyl)oxy)propane-1,3-diyl (9Z,9′Z,12Z,12′Z)-bis(octadeca-9,12-dienoate)]
Num Ave Size (nm) [1, 9]: 102 nm | PDI [1, 9]: 0.018 | Z-Ave Size (nm) [1, 9]: 124.2 nm | Serum TTR % TSS (mouse TTR; dose 0.03 mpk): 126.29 % TSS | Serum TTR % TSS (mouse TTR; dose 0.1 mpk): 87.49 % TSS | Encapsulation (%) [2, 9]: 99% | pKa [3]: 6.61

Compound: CCCCC/C=C\C/C=C\CCCCCCCC(=O)OCC(COC(=O)CCCCCCC/C=C\C/C=C\CCCCC)OC(=O)CCC(CCCCCCCC)OC(=O)NCCN(CC)CC (centres unmarked) [Compound 96, 2-((4-(((2-(diethylamino)ethyl)carbamoyl)oxy)dodecanoyl)oxy)propane-1,3-diyl (9Z,9′Z,12Z,12′Z)-bis(octadeca-9,12-dienoate)]
Num Ave Size (nm) [1, 5]: 73 nm | PDI [1, 5]: 0.03 | Z-Ave Size (nm) [1, 5]: 89 nm | Serum TTR % TSS (mouse TTR; dose 0.03 mpk): 70% TSS | Encapsulation (%) [2, 5]: 98% | pKa [3]: 6.14

The next lines start with results.

Num Ave Size (nm) [1, 4]: 64 nm | PDI [1, 4]: 0.02 | Z-Ave Size (nm) [1, 4]: 80 nm | Encapsulation (%) [2, 4]: 99% | pKa [3]: 6.53
Compound: CCCCC/C=C\C/C=C\CCCCCCCC(=O)OCC(COC(=O)CCCCCCC/C=C\C/C=C\CCCCC)OC(=O)CCC(CCC(C)CCCC(C)C)OC(=O)NCCN1CCCC1 (centres unmarked) [Compound 105, 2-((7,11-dimethyl-4-(((2-(pyrrolidin-1l-yl)ethyl)carbamoyl)oxy)dodecanoyl)oxy)propane-1,3-diyl (9Z,9′Z,12Z,12′Z)-bis(octadeca-9,12-dienoate)]
Serum TTR % TSS (mouse TTR; dose 0.03 mpk): 47.97 % TSS

Num Ave Size (nm) [1, 6]: 100.4 nm | PDI [1, 6]: 0.051 | Z-Ave Size (nm) [1, 6]: 122.30 nm | Encapsulation (%) [2, 6]: 99% | pKa [3]: 6.32
Compound: CCCCC/C=C\C/C=C\CCCCCCCC(=O)OCC(COC(=O)CCCCCCC/C=C\C/C=C\CCCCC)OC(=O)CCC(CCCC)OC(=O)OCCCN1CCCC1 (centres unmarked) [Compound 68, 2-((4-(((3-(pyrrolidin-1-yl)propoxy)carbonyl)oxy)octanoyl)oxy)propane-1,3-diyl (9Z,9′Z,12Z,12′Z)-bis(octadeca-9,12-dienoate)]
Serum TTR % TSS (mouse TTR; dose 0.03 mpk): 68.58 % TSS

Num Ave Size (nm) [1, 8]: 59 nm | PDI [1, 8]: 0.13 | Z-Ave Size (nm) [1, 8]: 91.00 nm | Encapsulation (%) [2, 8]: 97% | pKa [3]: 5.93
Compound: CCCCC/C=C\C/C=C\CCCCCCCC(=O)OCC(COC(=O)CCCCCCC/C=C\C/C=C\CCCCC)OC(=O)CCC(CCCCCC)OC(=O)NCCN1CCCCC1 (centres unmarked) [Compound 78, 2-((4-(((2-(piperidin-1-yl)ethyl)carbamoyl)oxy)decanoyl)oxy)propane-1,3-diyl (9Z,9′Z,12Z,12′Z)-bis(octadeca-9,12-dienoate)]
Serum TTR % TSS (mouse TTR; dose 0.03 mpk): 99.8 % TSS | Serum TTR % TSS (mouse TTR; dose 0.1 mpk): 66.5 % TSS

Num Ave Size (nm) [1, 8]: 78 nm | PDI [1, 8]: 0.08 | Z-Ave Size (nm) [1, 8]: 104.00 nm | Encapsulation (%) [2, 8]: 98% | pKa [3]: 7.23
Compound: CCCCC/C=C\C/C=C\CCCCCCCC(=O)OCC(COC(=O)CCCCCCC/C=C\C/C=C\CCCCC)OC(=O)CCC(CCCCCC)OC(=O)NCCN1CCC1 (centres unmarked) [Compound 77, 2-((4-(((2-(azetidin-1-yl)ethyl)carbamoyl)oxy)decanoyl)oxy)propane-1,3-diyl (9Z,9′Z,12Z,12′Z)-bis(octadeca-9,12-dienoate)]
Serum TTR % TSS (mouse TTR; dose 0.03 mpk): 68.3 % TSS | Serum TTR % TSS (mouse TTR; dose 0.1 mpk): 80.6 % TSS

Num Ave Size (nm) [1, 10]: 73.46 nm | PDI [1, 10]: 0.02 | Z-Ave Size (nm) [1, 10]: 89.78 nm | Encapsulation (%) [2, 10]: 98% | pKa [3]: 6.17
Compound: CCCCC/C=C\C/C=C\CCCCCCCC(=O)OCC(COC(=O)CCCCCCC/C=C\C/C=C\CCCCC)OC(=O)CCC(CCCCCCC)OC(=O)OCCCN1CCCC1 (centres unmarked) [Compound 75, 2-((4-(((3-(pyrrolidin-1-yl)propoxy)carbonyl)oxy)undecanoyl)oxy)propane-1,3-diyl (9Z,9′Z,12Z,12′Z)-bis(octadeca-9,12-dienoate)]
Serum TTR % TSS (mouse TTR; dose 0.03 mpk): 45.098 % TSS | Serum TTR % TSS (mouse TTR; dose 0.1 mpk): 11.996 % TSS
